Columns and labels:
kinases (468) [1] = molecular target: kinases (468) (Homo sapiens, UniProt P10721, D816V); details: KIT(D816V); 1000 nM
kinases (468) [2] = molecular target: kinases (468) (Homo sapiens, UniProt P00533, G719C); details: EGFR(G719C); 1000 nM
kinases (468) [3] = molecular target: kinases (468) (Homo sapiens, UniProt P42679); details: CTK (MATK); 1000 nM
kinases (468) [4] = molecular target: kinases (468) (Homo sapiens, UniProt P51813); details: BMX; 1000 nM
kinases (468) [5] = molecular target: kinases (468) (Homo sapiens, UniProt Q8WXR4); details: MYO3B; 1000 nM
kinases (468) (Homo sapiens, UniProt Q8WXR4), sequence (Q8WXR4 whole entry): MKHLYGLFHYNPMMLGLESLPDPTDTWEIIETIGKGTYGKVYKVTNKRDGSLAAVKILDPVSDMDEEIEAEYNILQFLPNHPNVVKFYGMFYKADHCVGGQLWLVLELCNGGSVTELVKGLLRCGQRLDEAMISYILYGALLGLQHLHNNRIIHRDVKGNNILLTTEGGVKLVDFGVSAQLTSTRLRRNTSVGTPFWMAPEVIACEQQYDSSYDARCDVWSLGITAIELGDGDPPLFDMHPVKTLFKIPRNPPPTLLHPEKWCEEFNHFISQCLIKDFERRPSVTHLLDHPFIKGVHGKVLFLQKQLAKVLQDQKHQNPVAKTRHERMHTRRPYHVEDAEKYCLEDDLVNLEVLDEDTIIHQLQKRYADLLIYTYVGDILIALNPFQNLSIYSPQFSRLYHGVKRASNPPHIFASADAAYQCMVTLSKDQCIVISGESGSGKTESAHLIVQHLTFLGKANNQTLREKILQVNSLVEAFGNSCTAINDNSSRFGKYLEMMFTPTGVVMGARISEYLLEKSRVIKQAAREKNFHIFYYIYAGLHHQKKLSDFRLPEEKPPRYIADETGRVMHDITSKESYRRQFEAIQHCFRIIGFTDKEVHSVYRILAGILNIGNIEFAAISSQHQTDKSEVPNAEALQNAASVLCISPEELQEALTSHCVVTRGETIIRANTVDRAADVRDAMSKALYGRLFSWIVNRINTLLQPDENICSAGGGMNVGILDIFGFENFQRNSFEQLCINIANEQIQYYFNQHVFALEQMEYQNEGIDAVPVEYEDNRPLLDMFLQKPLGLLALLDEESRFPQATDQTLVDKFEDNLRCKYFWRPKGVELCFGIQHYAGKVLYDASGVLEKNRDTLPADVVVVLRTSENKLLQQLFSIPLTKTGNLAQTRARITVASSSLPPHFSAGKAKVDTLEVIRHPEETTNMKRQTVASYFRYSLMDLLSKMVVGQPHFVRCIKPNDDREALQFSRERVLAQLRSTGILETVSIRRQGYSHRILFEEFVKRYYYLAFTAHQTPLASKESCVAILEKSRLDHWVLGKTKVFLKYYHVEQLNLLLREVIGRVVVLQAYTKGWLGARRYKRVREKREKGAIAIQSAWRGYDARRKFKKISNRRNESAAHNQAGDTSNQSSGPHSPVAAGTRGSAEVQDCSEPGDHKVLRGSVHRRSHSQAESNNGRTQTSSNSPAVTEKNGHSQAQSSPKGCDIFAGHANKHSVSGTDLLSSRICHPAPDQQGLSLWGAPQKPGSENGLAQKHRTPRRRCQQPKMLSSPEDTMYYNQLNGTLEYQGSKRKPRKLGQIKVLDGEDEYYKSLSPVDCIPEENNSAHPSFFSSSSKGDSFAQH

kinases (468) [6] = molecular target: kinases (468) (Homo sapiens, UniProt P49841); details: GSK3B; 1000 nM
kinases (468) [7] = molecular target: kinases (468) (Homo sapiens, UniProt P29320); details: EPHA3; 1000 nM
kinases (468) (Homo sapiens, UniProt P29320), sequence (P29320 21-983): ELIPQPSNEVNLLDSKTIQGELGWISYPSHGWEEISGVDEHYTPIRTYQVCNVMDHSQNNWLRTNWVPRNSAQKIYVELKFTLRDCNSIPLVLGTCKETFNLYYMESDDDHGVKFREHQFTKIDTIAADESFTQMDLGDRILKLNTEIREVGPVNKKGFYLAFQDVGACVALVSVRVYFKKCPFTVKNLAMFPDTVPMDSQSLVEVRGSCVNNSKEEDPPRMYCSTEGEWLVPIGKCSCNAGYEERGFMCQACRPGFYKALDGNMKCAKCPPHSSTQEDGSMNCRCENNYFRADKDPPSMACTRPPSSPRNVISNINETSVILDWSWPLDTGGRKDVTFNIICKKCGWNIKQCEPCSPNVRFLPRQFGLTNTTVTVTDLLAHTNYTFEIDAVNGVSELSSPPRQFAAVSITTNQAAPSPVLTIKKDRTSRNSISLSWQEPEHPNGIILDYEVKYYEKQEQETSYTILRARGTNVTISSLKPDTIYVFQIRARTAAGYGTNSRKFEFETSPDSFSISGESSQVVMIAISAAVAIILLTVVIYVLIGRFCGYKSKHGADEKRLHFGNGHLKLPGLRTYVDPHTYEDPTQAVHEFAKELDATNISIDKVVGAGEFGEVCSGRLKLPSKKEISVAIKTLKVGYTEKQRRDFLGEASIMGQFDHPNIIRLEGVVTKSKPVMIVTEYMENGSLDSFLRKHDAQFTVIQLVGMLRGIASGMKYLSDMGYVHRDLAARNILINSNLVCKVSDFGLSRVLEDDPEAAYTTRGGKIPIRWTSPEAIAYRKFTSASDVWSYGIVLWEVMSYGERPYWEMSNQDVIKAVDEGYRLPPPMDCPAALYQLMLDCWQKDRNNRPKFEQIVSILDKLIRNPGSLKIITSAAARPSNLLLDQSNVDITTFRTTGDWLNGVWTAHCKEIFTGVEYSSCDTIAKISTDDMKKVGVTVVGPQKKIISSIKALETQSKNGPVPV

kinases (468) [8] = molecular target: kinases (468) (Homo sapiens, UniProt Q8IVH8); details: MAP4K3; 1000 nM
kinases (468) [9] = molecular target: kinases (468) (Homo sapiens, UniProt Q13164); details: ERK5 (MAPK7); 1000 nM
kinases (468) [10] = molecular target: kinases (468) (Homo sapiens, UniProt P07949, M918T); details: kinase RET(M918T) (Entrez RET); compound concentration 1000 nM
kinases (468) [11] = molecular target: kinases (468) (Plasmodium falciparum, UniProt P61075); details: PFPK5(P.falciparum) (MAL13P1.279); 1000 nM
kinases (468) (Plasmodium falciparum, UniProt P61075), sequence (P61075 whole entry): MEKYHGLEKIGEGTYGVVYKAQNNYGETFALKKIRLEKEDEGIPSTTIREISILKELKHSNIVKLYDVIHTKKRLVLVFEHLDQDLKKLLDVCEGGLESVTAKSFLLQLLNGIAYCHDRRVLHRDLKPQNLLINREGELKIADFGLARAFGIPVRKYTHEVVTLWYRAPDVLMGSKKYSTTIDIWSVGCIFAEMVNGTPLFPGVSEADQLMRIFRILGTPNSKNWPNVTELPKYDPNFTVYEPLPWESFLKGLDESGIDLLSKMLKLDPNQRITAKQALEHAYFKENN

kinases (468) [12] = molecular target: kinases (468) (Homo sapiens, UniProt P49761); details: CLK3; 1000 nM
kinases (468) [13] = molecular target: kinases (468) (Homo sapiens, UniProt Q9BXA7); details: kinase TSSK1B (Entrez TSSK1B); compound concentration 1000 nM
kinases (468) [14] = molecular target: kinases (468) (Homo sapiens, UniProt P36888, D835Y); details: FLT3(D835Y); 1000 nM
kinases (468) [15] = molecular target: kinases (468) (Homo sapiens, UniProt Q13464); details: kinase ROCK1 (Entrez ROCK1); compound concentration 1000 nM
kinases (468) [16] = molecular target: kinases (468) (Homo sapiens, UniProt P09769); details: FGR; 1000 nM
kinases (468) [17] = molecular target: kinases (468) (Homo sapiens, UniProt O15075); details: DCAMKL1 (DCLK1); 1000 nM
kinases (468) [18] = molecular target: kinases (468) (Homo sapiens, UniProt Q5S007, G2019S); details: LRRK2(G2019S); 1000 nM
kinases (468) [19] = molecular target: kinases (468) (Homo sapiens, UniProt P27361); details: ERK1 (MAPK3); 1000 nM
kinases (468) [20] = molecular target: kinases (468) (Homo sapiens, UniProt P54764); details: EPHA4; 1000 nM
kinases (468) [21] = molecular target: kinases (468) (Homo sapiens, UniProt P42338); details: PIK3CB; 1000 nM
kinases (468) [22] = molecular target: kinases (468) (Homo sapiens, UniProt Q9NRM7); details: LATS2; 1000 nM
kinases (468) (Homo sapiens, UniProt Q9NRM7), sequence (Q9NRM7 whole entry): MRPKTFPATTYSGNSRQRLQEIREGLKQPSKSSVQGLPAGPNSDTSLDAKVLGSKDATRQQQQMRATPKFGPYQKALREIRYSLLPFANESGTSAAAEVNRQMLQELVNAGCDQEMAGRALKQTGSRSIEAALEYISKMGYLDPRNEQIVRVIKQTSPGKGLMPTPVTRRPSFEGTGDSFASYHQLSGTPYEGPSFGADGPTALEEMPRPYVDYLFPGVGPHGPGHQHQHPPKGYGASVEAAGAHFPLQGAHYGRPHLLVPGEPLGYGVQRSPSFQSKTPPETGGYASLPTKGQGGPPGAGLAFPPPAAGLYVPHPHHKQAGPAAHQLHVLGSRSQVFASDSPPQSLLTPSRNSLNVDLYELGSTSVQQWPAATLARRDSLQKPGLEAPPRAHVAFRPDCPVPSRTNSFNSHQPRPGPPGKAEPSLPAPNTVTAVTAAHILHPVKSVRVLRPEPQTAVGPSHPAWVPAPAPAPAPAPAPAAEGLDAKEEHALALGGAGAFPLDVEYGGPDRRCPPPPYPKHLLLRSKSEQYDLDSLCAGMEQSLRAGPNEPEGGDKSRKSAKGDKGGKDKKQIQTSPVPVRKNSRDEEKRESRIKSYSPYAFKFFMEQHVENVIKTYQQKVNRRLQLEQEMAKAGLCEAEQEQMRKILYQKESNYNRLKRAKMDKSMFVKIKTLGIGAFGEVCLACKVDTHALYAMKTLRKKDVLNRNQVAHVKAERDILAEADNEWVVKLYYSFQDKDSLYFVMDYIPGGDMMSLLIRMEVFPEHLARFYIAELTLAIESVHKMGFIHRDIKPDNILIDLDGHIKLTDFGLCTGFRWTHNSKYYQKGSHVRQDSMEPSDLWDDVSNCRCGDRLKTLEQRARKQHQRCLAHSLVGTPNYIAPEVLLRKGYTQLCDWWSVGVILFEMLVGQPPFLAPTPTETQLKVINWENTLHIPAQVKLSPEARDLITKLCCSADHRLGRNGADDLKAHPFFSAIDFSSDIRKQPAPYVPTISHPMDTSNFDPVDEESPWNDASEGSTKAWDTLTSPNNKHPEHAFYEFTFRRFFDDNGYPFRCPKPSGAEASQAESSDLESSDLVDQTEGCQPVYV

kinases (468) [23] = molecular target: kinases (468) (Homo sapiens, UniProt P53355); details: DAPK1; 1000 nM
kinases (468) [24] = molecular target: kinases (468) (Homo sapiens, UniProt Q8IVW4); details: CDKL3; 1000 nM
kinases (468) (Homo sapiens, UniProt Q8IVW4), sequence (Q8IVW4 whole entry): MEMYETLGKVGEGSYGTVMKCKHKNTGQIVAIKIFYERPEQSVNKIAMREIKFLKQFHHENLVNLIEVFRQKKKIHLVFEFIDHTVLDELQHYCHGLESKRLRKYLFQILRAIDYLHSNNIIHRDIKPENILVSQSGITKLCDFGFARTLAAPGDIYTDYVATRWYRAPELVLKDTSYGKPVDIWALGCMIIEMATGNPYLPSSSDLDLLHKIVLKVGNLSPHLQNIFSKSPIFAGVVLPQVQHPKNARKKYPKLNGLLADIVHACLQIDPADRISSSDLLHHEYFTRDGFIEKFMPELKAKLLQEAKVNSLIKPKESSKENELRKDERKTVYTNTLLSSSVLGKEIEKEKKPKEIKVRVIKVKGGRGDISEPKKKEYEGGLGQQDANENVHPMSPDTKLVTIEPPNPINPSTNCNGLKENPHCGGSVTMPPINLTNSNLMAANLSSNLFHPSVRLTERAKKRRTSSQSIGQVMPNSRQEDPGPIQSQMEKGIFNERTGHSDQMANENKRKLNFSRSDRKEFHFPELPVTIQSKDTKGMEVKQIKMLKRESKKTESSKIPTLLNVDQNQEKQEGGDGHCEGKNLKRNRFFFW

kinases (468) [25] = molecular target: kinases (468) (Homo sapiens, UniProt P11362); details: FGFR1; 1000 nM
kinases (468) (Homo sapiens, UniProt P11362), sequence (P11362 22-822): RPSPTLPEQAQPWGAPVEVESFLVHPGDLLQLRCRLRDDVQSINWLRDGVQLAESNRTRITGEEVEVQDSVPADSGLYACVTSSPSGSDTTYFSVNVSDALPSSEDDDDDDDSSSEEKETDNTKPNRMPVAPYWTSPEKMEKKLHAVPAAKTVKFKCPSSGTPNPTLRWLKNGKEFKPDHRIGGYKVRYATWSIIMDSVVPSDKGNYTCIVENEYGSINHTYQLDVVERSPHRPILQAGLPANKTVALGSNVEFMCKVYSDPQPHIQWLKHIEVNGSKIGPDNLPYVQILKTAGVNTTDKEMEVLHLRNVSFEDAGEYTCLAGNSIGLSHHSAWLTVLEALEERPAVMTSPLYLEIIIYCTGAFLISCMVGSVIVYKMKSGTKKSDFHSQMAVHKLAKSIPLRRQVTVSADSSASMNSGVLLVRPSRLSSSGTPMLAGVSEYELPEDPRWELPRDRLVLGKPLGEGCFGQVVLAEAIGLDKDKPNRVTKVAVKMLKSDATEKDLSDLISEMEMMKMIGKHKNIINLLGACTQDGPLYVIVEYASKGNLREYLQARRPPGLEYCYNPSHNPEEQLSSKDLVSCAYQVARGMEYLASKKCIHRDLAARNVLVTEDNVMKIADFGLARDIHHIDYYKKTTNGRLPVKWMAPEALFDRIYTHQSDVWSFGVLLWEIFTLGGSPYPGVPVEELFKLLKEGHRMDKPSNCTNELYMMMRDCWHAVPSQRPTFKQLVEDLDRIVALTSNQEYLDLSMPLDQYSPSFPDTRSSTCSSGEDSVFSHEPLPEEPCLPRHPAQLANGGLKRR

kinases (468) [26] = molecular target: kinases (468) (Homo sapiens, UniProt Q13705); details: ACVR2B; 1000 nM
kinases (468) [27] = molecular target: kinases (468) (Homo sapiens, UniProt P35968); details: kinase VEGFR2 (Entrez KDR); compound concentration 1000 nM
kinases (468) [28] = molecular target: kinases (468) (Homo sapiens, UniProt Q96NX5); details: CAMK1G; 1000 nM
kinases (468) [29] = molecular target: kinases (468) (Homo sapiens, UniProt Q8TDR2); details: kinase STK35 (Entrez STK35); compound concentration 1000 nM
kinases (468) [30] = molecular target: kinases (468) (Homo sapiens, UniProt Q8N4C8); details: MINK (MINK1); 1000 nM
kinases (468) [31] = molecular target: kinases (468) (Homo sapiens, UniProt Q6PHR2); details: kinase ULK3 (Entrez ULK3); compound concentration 1000 nM
kinases (468) [32] = molecular target: kinases (468) (Homo sapiens, UniProt P21709); details: EPHA1; 1000 nM
kinases (468) [33] = molecular target: kinases (468) (Homo sapiens, UniProt P00533, G719S); details: EGFR(G719S); 1000 nM
kinases (468) [34] = molecular target: kinases (468) (Homo sapiens, UniProt Q9H1R3); details: MYLK2; 1000 nM

C[C@H]1C[C@@H](O)CN(c2ncc(Cl)c(Nc3ccc4c(c3)c3c(c(=O)n4C)OCC(F)(F)[C@H](C4CC4)N3)n2)C1 [CCT373566_9A]
Percent Control (kinases (468) [1]): 100%
Percent Control (kinases (468) [2]): 94%
Percent Control (kinases (468) [3]): 100%
Percent Control (kinases (468) [4]): 100%
Percent Control (kinases (468) [5]): 100%
Percent Control (kinases (468) [6]): 94%
Percent Control (kinases (468) [7]): 85%
Percent Control (kinases (468) [8]): 100%
Percent Control (kinases (468) [9]): 97%
Percent Control (kinases (468) [10]): 100%
Percent Control (kinases (468) [11]): 89%
Percent Control (kinases (468) [12]): 97%
Percent Control (kinases (468) [13]): 100%
Percent Control (kinases (468) [14]): 90%
Percent Control (kinases (468) [15]): 93%
Percent Control (kinases (468) [16]): 100%
Percent Control (kinases (468) [17]): 100%
Percent Control (kinases (468) [18]): 12%
Percent Control (kinases (468) [19]): 98%
Percent Control (kinases (468) [20]): 100%
Percent Control (kinases (468) [21]): 85%
Percent Control (kinases (468) [22]): 96%
Percent Control (kinases (468) [23]): 83%
Percent Control (kinases (468) [24]): 100%
Percent Control (kinases (468) [25]): 100%
Percent Control (kinases (468) [26]): 84%
Percent Control (kinases (468) [27]): 95%
Percent Control (kinases (468) [28]): 96%
Percent Control (kinases (468) [29]): 99%
Percent Control (kinases (468) [30]): 87%
Percent Control (kinases (468) [31]): 93%
Percent Control (kinases (468) [32]): 100%
Percent Control (kinases (468) [33]): 100%
Percent Control (kinases (468) [34]): 100%
